Test results: patent US20030133908A1, “Treatment for intracranial tumors” (priority 2002, published 2003)

Legend:
rat microglia [1] = assay: Nitric oxide (nitrite) production by cultured rat microglia (Griess reaction); type: cell-based; settings: in the presence of TGF-β
Protocol: (§1) The ability of cultured rat microglia to produce the soluble cytotoxic agents, TNF-αand nitric oxide, was examined. Rat microglia were harvested and plated in a 96-well plate at a density of 5×10^5 cells/well in 200 μl of serum-free CellGro complete medium (MediaTech, Inc.). In some wells, the medium was supplemented with different concentrations of LPS alone (from E. coli serotype […]; Sigma) while others were supplemented with a combination of LPS and recombinant rat IFN-γ (100 U/ml; R&D Systems). After 24 hours of incubation at 37° C., TNF-α protein in the supernatant of each well was quantified using a Cytoscreen rat-specific TNF-α ELISA kit (Biosource Intl., Camarillo, Calif.), and NO (nitrite) levels in the supernatant of each well were determined using the Griess reaction. All experiments were carried out in triplicate.

rat microglia [2] = assay: TNF-α production by cultured rat microglia (rat-specific TNF-α ELISA); type: cell-based; settings: in the presence of TGF-β
Protocol: as §1

RG2 glioma cells = assay: Microglia-mediated tumor cytotoxicity on co-cultured RG2 cells (modified MTT reduction assay); type: cell-based, rat; settings: L-NMA exposure
Protocol: Co-cultures of microglia and RG2 cells were established and cytotoxicity assays were carried out as follows: isolated rat microglial cells (5×10^5 cells/well) were added to a 96-well plate containing 200 μl/well of complete medium. After allowing the cells to adhere for one hour, the medium was aspirated and the appropriate number of RG2 cells (from 2.5×10^4 to 1×10^6 to yield effector:target [E:T] ratios from 0.5:1 to 20:1) was added to the wells in 200 μl of fresh, complete medium. As controls, glioma cells and microglia were cultured separately in other wells of the plate. Microglia-mediated tumor cytotoxicity was measured using a modified MTT reduction assay.
All experiments were performed in quadruplicate. Some co-culture experiments were carried out on glass cover slips to provide visual documentation of cytotoxicity. The cover slips were immersed in paraformaldehyde solution and then subjected to cresyl violet staining.
To determine the contributions of TNF-α and NO to the tumoricidal activity of microglia, MTT cytotoxicity assays were carried out in the presence of TNF-α binding protein (TNF-bp; an inhibitor of TNF-α) and N^G-monomethyl-L-arginine (L-NMA; an inhibitor of NO production).
The effects of TGF-β on microglial tumor cytotoxicity were also investigated in MTT cytotoxicity assays in the presence of TGF-β.

Compound	microglial production of NO (rat microglia [1])	microglial production of TNF-α (rat microglia [2])	killing of co-cultured RG2 by LPS/IFN-γ stimulated microglia (RG2 glioma cells)
TGF-β	concurrent decreases	concurrent decreases	–
CNC(=N)NCCC[C@H](N)C(=O)O [L-NMA, N^G-monomethyl-L-arginine]	–	–	significantly inhibited
